Experimental data taken from patent US20250002955A1, “Method for Promoting Production of Exopolysaccharide by Bifidobacterium Bacteria” (TOHOKU UNIVERSITY, priority 2021, published 2025).

Experiments:
Assay type in all cases: cell-based
[1] = system: Bifidobacterium breve AT-APC-FucE1 strain; experiment: Confirmation of EPS production through culturing of AT-APC-FucE1 strain (transmission electron microscope); settings: 1% Fuc mMRS culture medium vs 1% Glu mMRS culture medium, anaerobic, 37° C., 12 hours, transmission electron microscope (FIGS. 4 and 5)
Text: An mMRS liquid culture medium comprising 0.5 wt. % and an mMRS liquid culture medium comprising 1 wt. % of D-glucose (hereinafter, the respective mMRS liquid culture mediums are also referred to as a “0.5% Glu mMRS culture medium” and a “1% Glu mMRS culture medium”, respectively) (composition: 10 g/L of beef extract, 5 g/L of yeast extract, 2 g/L of ammonium citrate, 5 g/L of sodium acetate, 0.1 g/L of magnesium sulfate, 0.05 g/L of manganese sulfate, 2 g/L of dipotassium hydrogen phosphate, 0.5 g/L of L-cysteine hydrochloride, and 0.5% or 1% D-glucose) were prepared. The 0.5% Glu mMRS culture medium was inoculated with the AT-APC-FucE1 strain, and pre-culturing was implemented anaerobically at 37° C. for 24 hours.
The 1% Fuc mMRS culture medium was then inoculated with 100 μL of the pre-cultured culture solution, and anaerobic culturing was carried out at 37° C. The AT-APC-FucE1 strain was collected from the culture solution that had been cultured for 12 hours, after which the bacterial cells were washed with phosphate-buffered saline (PBS), and subsequently, the bacterial cells were immobilized on a membrane, and the EPS production by the bacterial cells was confirmed using a transmission electron microscope. […]

[2] = system: Bifidobacterium breve AT-APC-FucE1 strain; experiment: Influence of presence or absence of L-fucose in culture medium on EPS production amount by AT-APC-FucE1 strain; settings: 0.5% sugar in mMRS culture medium, anaerobic, 37° C., 96 hours
Procedure: The 0.5% Glu mMRS culture medium was inoculated with the AT-APC-FucE1 strain, and pre-culturing was implemented anaerobically at 37° C. for 24 hours. An amount of 100 μL of the pre-cultured culture solution was inoculated into each of a 0.5% Fuc mMRS culture medium (mMRS liquid culture medium comprising 0.5 wt. % of L-fucose) and a 0.5% Glu mMRS culture medium, and then cultured anaerobically at 37° C. for 96 hours.
The amount of crude EPS extracted from the supernatant of each culture solution was approximately the same (13.33 mg/1000 mL). However, when the amount of protein in these crude EPS samples was measured, and the amount of protein was subtracted from the amount of crude EPS, the amount of EPS produced in the culture medium that used D-glucose (that is, the 0.5% Glu mMRS culture medium) was 9.34 mg/1000 mL, whereas the amount of EPS produced in the culture medium that used L-fucose (that is, the 0.5% Fuc mMRS culture medium) was 13.14 mg/1000 mL.

[3] = system: Bifidobacterium animalis subsp. lactis JCM10602 strain; experiment: Induction of EPS production by L-fucose in JCM10602 strain; settings: anaerobic, 37° C.; for amount of EPS produced, extracted with ethanol / amount of EPS produced, extracted with trichloracetic acid: 0.5% sugar in mMRS culture medium, 96 hours, culture supernatant
Procedure: In order to confirm whether the production of EPS is induced by L-fucose in other bacteria of the genus Bifidobacterium, the following test was carried out using the JCM10602 strain and the JCM1192 strain.
(§1) Note that the JCM10602 strain is Bifidobacterium animalis subsp. lactis (i.e., Bifidobacterium lactis), which is frequently used as a probiotic and is known to produce EPS at a high level, and the JCM1192 strain is a standard strain of Bifidobacterium breve, which is the same species as AT-APC-FucE1.
The JCM10602 strain was anaerobically cultured in a 0.5% Fuc mMRS culture medium and in a 0.5% Glu mMRS culture medium at 37° C. for 96 hours by the method described in Test 3 above.
When the EPS extracted from the culture supernatant was assayed, the amount of EPS produced in the culture medium using D-glucose (that is, the 0.5% Glu mMRS culture medium) was 132.97 mg/1000 mL (when extracted with trichloracetic acid) and 4.74 mg/1000 mL (when extracted with ethanol), whereas the amount of EPS produced in the culture medium using L-fucose (that is, the 0.5% Fuc mMRS culture medium) was 166.2 mg/1000 mL (when extracted with trichloracetic acid) and 13.33 mg/1000 mL (when extracted with ethanol).

[4] = system: Bifidobacterium breve JCM1192 strain; experiment: Induction of EPS production by L-fucose in JCM1192 strain; settings: JCM1192, standard strain of Bifidobacterium breve
Procedure: as §1, with “In order to confirm whether the production of EPS is induced by L-fucose in other bacteria of the genus Bifidobacterium, the following test was carried out using the JCM10602 strain and the JCM1192 strain. Note” for “Note”

| Compound | EPS production by the bacterial cells [1] | amount of EPS produced (amount of protein subtracted from amount of crude EPS) [2] [mg/1000 mL] | amount of crude EPS extracted from the supernatant of culture solution [2] [mg/1000 mL] | production of EPS (electron microscope observation) ([3]; 0.5% Fuc mMRS vs 0.5% Glu mMRS culture medium, 96 hours (FIG. 7)) | amount of EPS produced, extracted with ethanol [3] [mg/1000 mL] | amount of EPS produced, extracted with trichloracetic acid [3] [mg/1000 mL] | induction of EPS production [4] |
| --- | --- | --- | --- | --- | --- | --- | --- |
| C[C@H](O)[C@@H](O)[C@@H](O)[C@H](O)C=O [L-fucose] | remarkably promoted | 13.14 | ~13.33 | improved | 13.33 | 166.2 | significant production induction by L-fucose was not confirmed |
| O=C[C@H](O)[C@@H](O)[C@H](O)[C@H](O)CO [D-glucose, reference compound] |  | 9.34 | ~13.33 |  | 4.74 | 132.97 |  |
